This note sets out measurements from patent US9974305B2, “Fungicidal or bactericidal composition, and method for controlling diseases” (NISSAN CHEMICAL INDUSTRIES, LTD., priority 2014, dated 2018).

For data set [1], the system named is cucumber powdery mildew (Sphaerotheca cucurbitae). In words: Efficacy test on cucumber powdery mildew, irrigation treatment (Test Example 11). Type of data set: in vivo. As to conditions: cucumber (Sagami-hanjiro). The protocol: An agent comprising the following compound listed in Table 2 (active ingredient A) and the compound listed in Table 6 (C18: active ingredient B), was prepared in accordance with the above Formulation Example. This agent was diluted with water to a predetermined concentration to obtain a test solution. 5 ml of the test solution was irrigated by a pipette to the close-to-ground part of cucumber seedlings at the 1 leaf stage (variety: Sagami-hanjiro), grown in a styrol cup with a diameter of 10 cm, and next day, the seedlings were transplanted to the to 4 cun pots. Then, after cultivation for 7 days in a glass greenhouse, to the first true leaf of the cucumber, a spore suspension (100,000 cfu/ml) of cucumber powdery mildew (Sphaerotheca cucurbitae) was inoculated by spraying. After 10 days in a glass greenhouse, the ratio of the formed lesion area occupying the inoculated leaves was measured, and the preventive value was calculated in accordance with the following formula. Preventive value=[1−(treated plot lesion area ratio/untreated plot lesion area ratio)]×100
(§1) Further, from the preventive value at each agent concentration, synergy was calculated by using the Colby method (Colby S. R. 1976, Weeds 15, 20-22).

The subject of data set [2] is wheat glume blotch (Leptosphaeria nodorum). The data set can be described thus: Efficacy test on wheat glume blotch, spray treatment and prevention test (Test Example 8). Type of data set: in vivo. As to conditions: spray, lesion area ratio. As to the method:
An agent comprising the following compound listed in Table 2 (active ingredient A) and the following compound listed in Table 6, Table 11 or Table 15 (active ingredient B) as active ingredients, was prepared in accordance with the above Formulation Example. This agent was diluted with water to a predetermined concentration to obtain a test solution. Then, to seedlings of wheat (variety: Haruyutaka) at the 1-leaf stage, seeded in a pot with a diameter of 7 cm, with 5 seeds per pot, and grown for 7 days, the test solution was applied by a spray gun in an amount of 5 ml per pot, for treatment. One day after the treatment, a spore suspension (1×100,000 cfu/ml) of wheat glume blotch (Leptosphaeria nodorum) was spray-inoculated, and the pot was placed in a moist chamber set in temperature of 20° C. and humidity more than 95% RH for 48 hours. After placing the pot in a glass greenhouse for 7 days, the ratio of the formed lesion area occupying the inoculated leaves was measured, and the preventive value was calculated in accordance with the following formula. Preventive value=[1−(treated plot lesion area ratio/untreated plot lesion area ratio)]×100
(§2) Further, from the preventive value for each agent concentration, synergy was calculated by using the Colby method (Colby S. R. 1976, Weeds 15, 20-22).

Data set [3] has as its system rice sheath blight fungus (Rhizoctonia solani). The data set can be described thus: Efficacy test on rice sheath blight, spray treatment and prevention test (Test Examples 5-6). As to conditions: single compound 250 ppm, lesion height. Type of data set: in vivo. The protocol:
An agent comprising the following compound listed in Table 2 (active ingredient A) and the compound listed in Table 6 (C17: active ingredient B) as active ingredients, was prepared in accordance with the above Formulation Example. The agent was diluted with water to a predetermined concentration to obtain a test solution. Then, in a plastic pot of 90 cm^3, rice (Nipponbare) was seeded by 5 grains in one place, and to the grown seedlings in 4 seedling phase, the test solution was applied by a spray gun in an amount of 5 ml per pot, for treatment.
One day after the treatment, 1 g of mycelium flora of rice sheath blight fungus (Rhizoctonia solani) cultured in bran medium, was put by […] to a close-to-ground part of seedlings, and the pot was placed in a moist chamber set in temperature of 25° C. and humidity more than 95% RH for eight days. The height of the lesions which appeared in the highest position from the close-to-ground part (lesion height) was investigated, and the preventive value was calculated in accordance with the following formula. Preventive value=[1−(treated plot lesion height/untreated plot lesion height)]×100
as §2
Using the following compound listed in Table 2 (active ingredient A) and the compound listed in Table 6 (C17: active ingredient B) as active ingredients, a preventive test on rice sheath blight was conducted in accordance with the above Test Example 5.

The test system of data set [4] is cucumber downy mildew (Pseudoperenospora cubensis). The data set can be described thus: Efficacy test on cucumber downy mildew, spray treatment and prevention test (Test Example 7). As to conditions: single compound 250 ppm; lesion area ratio. It is filed as in vivo. As to the method:
An agent comprising the following compound listed in Table 2 (active ingredient A) and the compound listed in Table 6 (C40: active ingredient B) as active ingredients, was prepared in accordance with the above Formulation Example. This agent was diluted with water to a predetermined concentration to obtain a test solution. Then, to seedlings of cucumber (variety: Sagami-hanjiro) at 1.5-leaf stage grown in a pot with a diameter of 7 cm, the test solution was applied by a spray gun in an amount of 10 ml per pot, for treatment. One day after the treatment, a spore suspension (2×100,000 cfu/ml) of cucumber downy mildew (Pseudoperenospora cubensis), was spray-inoculated, and the pot was placed in a moist chamber set in temperature of 20° C. and humidity more than 95% RH for 24 hours. After placing the pot in a glass greenhouse for 6 days, the ratio of the formed lesion area occupying the inoculated leaves was measured, and the preventive value was calculated in accordance with the following formula. Preventive value=[1−(treated plot lesion area ratio/untreated plot lesion area ratio)]×100
as §2

The subject of data set [5] is cucumber gray mold fungus (Botrytis cinerea). The data set can be described thus: Preventive test against gray mold on cucumber cotyledon leaves, spray treatment, preventive value and Colby expected value (Test Examples 1-4). As to conditions: single compound. It is filed as in vivo. As to the method:
Using the following compound listed in Table 2 (the active ingredient A) and the compound listed in Table 5 through Table 15 (active ingredient B), an agent was prepared in accordance with the above Formulation Example. This agent was diluted with water to a predetermined concentration to obtain a test solution. Then, cucumber (variety: Sagami-hanjiro) was planted in a plastic pot of 90 cm^3, and in the cotyledon stage, 5 ml of the obtained test solution, was sprayed by a spray gun and air-dried. Thereafter, the treated leaf was cut off and placed in a plastic container which filled approximately 0.5 cm in depth water. A suspension of conidia of cucumber gray mold fungus (Botrytis cinerea) and a dissolved PDA culture medium were mixed at a ratio of 1:1 (mass ratio), and the mixture was dropped to inoculate the treated leaf with 30 μl. After the inoculation, the plastic container was sealed and left at 20° C. for 3 days, the ratio of the formed lesion occupying the inoculated leaf was measured, and the preventive value was calculated in accordance with the following calculation formula. Preventive value=[1−(treated plot lesion area ratio/untreated plot lesion area ratio)]×100
Further, from the preventive value at each agent concentration, synergy was calculated by using the Colby method (Colby S. R. 1976, Weeds 15, 20-22). The calculation method is as follows. E=X+Y−XY/100
X: preventive value of A agent at x concentration
Y: preventive value of B agent at y concentration
E: theoretical value expected by treatment of the mixture of A agent and B agent.
The obtained result is analyzed to be synergy if the observed value is larger than the expected value, to be antagonism if the expected value is larger than the observed value, and to be an additive effect if the observed value and the expected value are the same.
Using the following compound listed in Table 2 (active ingredient A) and the following compound listed in Table 5 through Table 15 (active ingredient B) as active ingredients, a preventive test against gray mold was conducted in accordance with the method described in Test Example 1.
Using the following compound listed in Table 2 (active ingredient A) and the following compound listed in Table 5 or Table 6 (active ingredient B) as active ingredients, a preventive test against gray mold was conducted in accordance with the method described in Test Example 1.
Using the following compound listed in Table 2 (active ingredient A) and the following compound listed in Table 6 through Table 16 (active ingredient B) as active ingredients, a preventive test against gray mold was conducted in accordance with the method described in Test Example 1.

For data set [6], the system named is wheat powdery mildew (Blumeria graminis). In words: Efficacy test on wheat powdery mildew, seed treatment (Test Example 10). As to conditions: wheat (Norin 61). Type of data set: in vivo. The protocol:
An agent comprising the following compound listed in Table 2 (active ingredient A) and the compound listed in Table 11 (H35: active ingredient B) as active ingredients, was prepared in accordance with the above Formulation Example. This agent was diluted with water to a predetermined concentration to obtain a test solution. A predetermined amount of test solution was put in a glass bottle of 5 ml, and 0.5 g (approximately 15 grains) of wheat seeds (variety: Norin 61) were added, stirred and air-dried. In each pot with a diameter of 7 cm and having soil put therein, 3 grains were seeded and grown for 14 days. To the wheat seedlings grown to the 1-leaf stage, a spore suspension (100,000 cfu/ml) of wheat powdery mildew (Blumeria graminis) was spray-inoculated. After placing the pot in a glass greenhouse for 10 days, the ratio of the formed lesion area occupying the inoculated leaves was measured, and the preventive value was calculated in accordance with the following formula. Preventive value=[1−(treated plot lesion area ratio/untreated plot lesion area ratio)]×100
as §1

Where [7] appears, read: processing amount 5 mg/1 g seed.
The mark [8] stands for this setting: processing amount 10 mg/1 g seed.

On to `CCC(C)ON=C(CNC(=O)c1cn(C)nc1C(F)F)c1ncc(C#CC2CC2)cc1Cl` (mixture of isomers) [Compound No. 27], for which the Preventive value in data set [1] (concentration 500 ppm) was 60; in data set [2] (single compound 3 ppm) it was 75; in data set [2] (single compound 10 ppm), 85; in data set [3] (Test Example 6), 8; in data set [4], 0; in data set [5] (Test Example 2, 3 ppm spray) it was 50. In addition, the Preventive value in data set [5] (Test Example 3, 3 ppm spray) is listed as 55; in data set [5] (Test Example 4, 3 ppm spray) it was 45; in data set [6] (setting [7]), 85; in data set [6] (setting [8]), 90.

For orientation: melting point means the temperature, or range, at which the solid turns liquid. Compound `CO/N=C(/CNC(=O)c1ccccc1C(F)(F)F)c1ncc(Cl)c(OC)c1Cl` [Compound No. 8, (Z)—N-[2-[3,5-dichloro-4-(methoxy)pyridin-2-yl]-2-(methoxyimino)ethyl]-2-(trifluoromethyl)benzamide] had a melting point of 74 to 76 °C.

For `CO/C=C(/C(=O)OC)c1ccccc1Oc1cc(Oc2ccccc2C#N)ncn1` [Compound No. C18, azoxystrobin, reference compound], the Preventive value in data set [1] (concentration 6.3 ppm) was 50; in data set [2] (single compound 1 ppm), 65; in data set [5] (Test Example 1, 3 ppm spray), 30; in data set [5] (Test Example 2, 3 ppm spray) it was 28.

Turning to `CC#Cc1cnc(C(CNC(=O)c2ccccc2C(F)(F)F)=NOC(C)C)c(Cl)c1` [compound 18], the Preventive value is on record as 35 in data set [1] (concentration 500 ppm); 50 in data set [2] (single compound 3 ppm); 65 in data set [2] (single compound 10 ppm); 8 in data set [3] (Test Example 5); 0 in data set [4]; 88 in data set [5] (Test Example 1, 3 ppm spray). Moreover, the Preventive value in data set [5] (Test Example 3, 3 ppm spray) turned out to be 85; in data set [5] (Test Example 4, 3 ppm spray) it was 75; in data set [6] (setting [7]) it was 62; in data set [6] (setting [8]) it was 98.

On to `CC(C)ON=C(CNC(=O)c1ccccc1C(F)(F)F)c1ncc(Cl)c(S(C)(=O)=O)c1Cl` [compound 32], for which the Preventive value in data set [1] (concentration 500 ppm) is on record as 30; in data set [2] (single compound 3 ppm), 60; in data set [2] (single compound 10 ppm) it was 85; in data set [3] (Test Example 6), 6; in data set [4] it was 0; in data set [5] (Test Example 2, 1 ppm spray), 94. In addition, the Preventive value in data set [5] (Test Example 3, 1 ppm spray) is given as 90; in data set [5] (Test Example 4, 1 ppm spray) it was 80.

Consider `O=C(NCC(=NOCC(F)(F)F)c1ncc(Cl)cc1Cl)c1ccccc1C(F)(F)F` [compound 33], for which the Preventive value is 15 in data set [1] (concentration 500 ppm); 20 in data set [2] (single compound 3 ppm); 45 in data set [2] (single compound 10 ppm); 4 in data set [3] (Test Example 6); 0 in data set [4]; 45 in data set [5] (Test Example 2, 3 ppm spray). For the same compound, the Preventive value in data set [5] (Test Example 3, 3 ppm spray) is 45; in data set [5] (Test Example 4, 3 ppm spray), 50; in data set [6] (setting [7]), 20; in data set [6] (setting [8]) it was 61.

Regarding `CC#Cc1cnc(C(CNC(=O)c2cn(C)nc2C(F)F)=NOC(C)(C)C)c(Cl)c1` [compound 34], the Preventive value turned out to be 60 in data set [1] (concentration 500 ppm); 80 in data set [2] (single compound 3 ppm); 85 in data set [2] (single compound 10 ppm); 5 in data set [3] (Test Example 6); 5 in data set [4]; 63 in data set [5] (Test Example 2, 1 ppm spray). The Preventive value in data set [5] (Test Example 3, 1 ppm spray) was found to be 70; in data set [5] (Test Example 4, 1 ppm spray), 50; in data set [6] (setting [7]) it was 20; in data set [6] (setting [8]), 85.

As for `CON=C(CNC(=O)c1cccnc1Cl)c1ncc(C#CC(C)(C)C)cc1Cl` [compound 35], the Preventive value in data set [1] (concentration 500 ppm) is 30; in data set [2] (single compound 3 ppm), 50; in data set [2] (single compound 10 ppm) it was 70; in data set [3] (Test Example 6) it was 5; in data set [4] it was 0; in data set [5] (Test Example 1, 3 ppm spray), 88. Further, the Preventive value was 90 in data set [5] (Test Example 3, 3 ppm spray); 88 in data set [5] (Test Example 4, 3 ppm spray); 20 in data set [6] (setting [7]); 61 in data set [6] (setting [8]).

With `CON=C(CNC(=O)c1ccccc1C(F)(F)F)c1ncc(C#CC2CC2)cc1Cl` [compound 36], the Preventive value in data set [1] (concentration 500 ppm) is on record as 35; in data set [2] (single compound 3 ppm), 55; in data set [2] (single compound 10 ppm) it was 70; in data set [3] (Test Example 5), 0; in data set [4], 0; in data set [5] (Test Example 1, 3 ppm spray) it was 75. Moreover, the Preventive value in data set [5] (Test Example 3, 3 ppm spray) turned out to be 80; in data set [5] (Test Example 4, 3 ppm spray) it was 80; in data set [6] (setting [7]), 99; in data set [6] (setting [8]), 100.
